Active and inactive are the calls of the source. The calls are words filed in the database; no cut-off is given here.
Tests used:
MV4-11 [1] = assay: Antiproliferative activity against human MV4-11 cells assessed as cell growth inhibition measured after 72 hrs by SRB Assay; settings: MV4-11, 72 h
MV4-11 [2] = assay: Effect on PLK1 expression in human MV4-11 cells at IC50 measured after 6 hrs by Western blot analysis; type: functional, cell-based
[3] = target: T1, Protein cereblon/Wee1-like protein kinase (Homo sapiens, UniProt P30291+Q96SW2); assay: PROTAC activity at CRBN/Wee1 in human MV4-11 cells assessed as residual Wee1 level at IC50 measured after 6 hrs by Western blot analysis (reference value: 100%); type: cell-based
A498 = assay: Antiproliferative activity against human A498 cells assessed as cell growth inhibition measured after 72 hrs by SRB Assay; settings: A498, 72 h
SUM149PT = assay: Antiproliferative activity against human SUM149PT cells assessed as cell growth inhibition measured after 72 hrs by SRB Assay
[4] = target: Serine/threonine-protein kinase PLK1 (Homo sapiens, UniProt P53350); assay: Inhibition of PLK1 (unknown origin)
[5] = target: Wee1-like protein kinase (Homo sapiens) (UniProt P30291); assay: Inhibition of Wee1 in human MV4-11 cells at IC50 measured after 6 hrs by Western blot analysis relative to control; type: cell-based
[6] = target: T1, Protein cereblon/Wee1-like protein kinase; assay: PROTAC activity at CRBN/Wee1 in human MV4-11 cells assessed as reduction in Wee1 level measured after 72 hrs by Western blot analysis; type: cell-based
[7] = Effect on Wee1 level in human MV4-11 cells assessed as Wee1 level at 50 nM measured after 6 hrs by Immunoblotting method relative to control (reference value: 100%); type: functional
[8] = AUClast in ICR mouse at 20 mg/kg, po measured upto 360 mins; type: ADME, organism-based; set-up: time < 360 min, dose 20 mg/kg, route po; settings: in vivo
[9] = Effect on Wee1 level in human MV4-11 cells assessed as Wee1 level at 100 nM measured after 6 hrs by Immunoblotting method relative to control (reference value: 100%); type: functional
[10] = Effect on Wee1 level in human MV4-11 cells assessed as residual Wee1 level at 12.5 nM measured after 6 hrs by Immunoblotting method (reference value: 100%); type: functional
[11] = Half life in ICR mouse at 20 mg/kg, po measured upto 360 mins; type: ADME, organism-based; settings: in vivo
[12] = Effect on Wee1 level in human MV4-11 cells assessed as residual Wee1 level at 6.25 nM measured after 6 hrs by Immunoblotting method (reference value: 100%); type: functional
[13] = Effect on Wee1 level in human MV4-11 cells assessed as Wee1 level at 25 nM measured after 6 hrs by Immunoblotting method relative to control (reference value: 100%); type: functional
[14] = Tmax in ICR mouse at 20 mg/kg, po measured upto 360 mins; type: ADME, organism-based; settings: in vivo
[15] = Observed AUCinfinity ICR mouse at 20 mg/kg, po measured upto 360 mins; type: ADME, organism-based; set-up: time < 360 min, dose 20 mg/kg, route po; settings: in vivo
[16] = Cmax in ICR mouse at 20 mg/kg, po measured upto 360 mins; type: ADME, organism-based; set-up: time < 360 min, dose 20 mg/kg, route po; settings: in vivo
[17] = Observed MRTinfinity ICR mouse at 20 mg/kg, po measured upto 360 mins; type: ADME, organism-based; settings: in vivo

Chain of Serine/threonine-protein kinase PLK1 (P53350 whole entry): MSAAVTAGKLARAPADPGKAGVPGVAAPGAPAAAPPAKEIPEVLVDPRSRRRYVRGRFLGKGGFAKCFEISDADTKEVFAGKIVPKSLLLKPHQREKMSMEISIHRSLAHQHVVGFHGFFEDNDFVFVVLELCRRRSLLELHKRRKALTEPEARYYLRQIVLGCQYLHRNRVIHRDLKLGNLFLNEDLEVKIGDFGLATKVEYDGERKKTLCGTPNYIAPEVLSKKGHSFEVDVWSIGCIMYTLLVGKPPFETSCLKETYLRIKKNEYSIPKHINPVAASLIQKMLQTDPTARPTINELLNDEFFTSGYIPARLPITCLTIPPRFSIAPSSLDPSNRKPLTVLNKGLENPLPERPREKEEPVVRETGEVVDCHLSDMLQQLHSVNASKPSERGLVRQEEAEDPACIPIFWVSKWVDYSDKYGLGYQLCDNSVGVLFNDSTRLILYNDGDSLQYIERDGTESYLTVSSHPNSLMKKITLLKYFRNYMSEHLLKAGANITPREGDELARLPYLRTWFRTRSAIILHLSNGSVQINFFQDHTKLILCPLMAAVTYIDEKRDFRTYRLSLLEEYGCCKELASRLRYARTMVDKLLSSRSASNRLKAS
T1 sequence (P30291 whole entry, looked up): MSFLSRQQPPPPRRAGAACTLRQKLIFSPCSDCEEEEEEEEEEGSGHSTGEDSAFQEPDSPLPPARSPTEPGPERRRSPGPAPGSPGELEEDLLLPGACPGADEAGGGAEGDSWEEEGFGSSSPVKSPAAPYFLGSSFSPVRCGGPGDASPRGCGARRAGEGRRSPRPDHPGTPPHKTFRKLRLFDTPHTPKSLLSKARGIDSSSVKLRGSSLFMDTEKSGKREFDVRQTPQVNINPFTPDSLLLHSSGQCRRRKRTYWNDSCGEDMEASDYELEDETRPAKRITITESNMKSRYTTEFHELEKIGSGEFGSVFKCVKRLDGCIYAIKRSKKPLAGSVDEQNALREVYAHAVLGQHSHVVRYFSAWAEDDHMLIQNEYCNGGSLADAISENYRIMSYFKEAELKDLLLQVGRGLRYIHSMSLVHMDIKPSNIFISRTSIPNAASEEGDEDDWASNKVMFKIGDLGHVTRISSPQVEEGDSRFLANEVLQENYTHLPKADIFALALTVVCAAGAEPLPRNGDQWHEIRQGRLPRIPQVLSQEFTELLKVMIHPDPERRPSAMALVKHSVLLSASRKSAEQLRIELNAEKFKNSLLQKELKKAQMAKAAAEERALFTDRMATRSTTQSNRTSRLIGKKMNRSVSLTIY
T1 sequence (Q96SW2 whole entry, looked up): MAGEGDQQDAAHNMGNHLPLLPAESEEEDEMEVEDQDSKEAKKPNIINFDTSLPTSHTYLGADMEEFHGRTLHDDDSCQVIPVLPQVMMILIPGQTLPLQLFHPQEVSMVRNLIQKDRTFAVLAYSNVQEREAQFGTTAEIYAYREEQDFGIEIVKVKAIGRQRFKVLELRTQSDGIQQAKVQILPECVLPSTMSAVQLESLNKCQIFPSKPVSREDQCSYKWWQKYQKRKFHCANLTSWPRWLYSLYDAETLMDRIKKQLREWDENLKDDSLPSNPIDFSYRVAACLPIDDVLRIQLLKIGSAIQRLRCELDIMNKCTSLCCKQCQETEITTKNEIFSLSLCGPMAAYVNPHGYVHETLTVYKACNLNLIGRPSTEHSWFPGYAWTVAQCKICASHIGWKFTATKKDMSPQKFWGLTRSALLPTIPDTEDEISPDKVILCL
Chain of Wee1-like protein kinase (Homo sapiens) (P30291 whole entry, looked up): as the sequence (P30291 whole entry, looked up) above

Row | SMILES | IC50 (MV4-11 [1]) | Activity (MV4-11 [2]) | Activity [3] | IC50 (A498) | IC50 (SUM149PT) | further results
1 | C=CCn1c(=O)c2cnc(Nc3ccc(N4CCN(CC(=O)NCCCCC(=O)NCCNc5cccc6c5C(=O)N(C5CCC(=O)NC5=O)C6=O)CC4)cc3)nc2n1-c1cccc(C(C)(C)O)n1 (configuration not stated) | 2000 nM | inactive | 22% | > 10 µM | > 10 µM | –
2 | C=CCn1c(=O)c2cnc(Nc3ccc(N4CCN(CC(=O)NCCCCCCNc5cccc6c5C(=O)N(C5CCC(=O)NC5=O)C6=O)CC4)cc3)nc2n1-c1cccc(C(C)(C)O)n1 (configuration not stated) | 1110 nM | inactive | 49% | 6.65 µM | 2.81 µM | –
3 | C=CCn1c(=O)c2cnc(Nc3ccc(N4CCN(CC(=O)NCCOCCOCCOCCOCCOCCOCCOCCNc5cccc6c5C(=O)N(C5CCC(=O)NC5=O)C6=O)CC4)cc3)nc2n1-c1cccc(C(C)(C)O)n1 (configuration not stated) | 716 nM | inactive | 21% | > 10 µM | > 10 µM | IC50 [4]: > 10 µM
4 | C=CCn1c(=O)c2cnc(Nc3ccc(N4CCN(CC(=O)NCCCNc5cccc6c5C(=O)N(C5CCC(=O)NC5=O)C6=O)CC4)cc3)nc2n1-c1cccc(C(C)(C)O)n1 (configuration not stated) | 215 nM | inactive | 37% | 7.74 µM | 1.55 µM | –
5 | C=CCn1c(=O)c2cnc(Nc3ccc(N4CCN(CC(=O)NCCOCCOCCNc5cccc6c5C(=O)N(C5CCC(=O)NC5=O)C6=O)CC4)cc3)nc2n1-c1cccc(C(C)(C)O)n1 (configuration not stated) | 1000 nM | inactive | 21% | > 10 µM | 6.04 µM | IC50 [4]: > 10 µM
6 | C=CCn1c(=O)c2cnc(Nc3ccc(N4CCN(CC(=O)NCCCCC(=O)NCCOc5cccc6c5C(=O)N(C5CCC(=O)NC5=O)C6=O)CC4)cc3)nc2n1-c1cccc(C(C)(C)O)n1 (configuration not stated) | 5000 nM | inactive | 23% | > 10 µM | > 10 µM | –
7 | C=CCn1c(=O)c2cnc(Nc3ccc(N4CCN(CC(=O)NCCOCCOCCOCCNc5cccc6c5C(=O)N(C5CCC(=O)NC5=O)C6=O)CC4)cc3)nc2n1-c1cccc(C(C)(C)O)n1 (configuration not stated) | 2200 nM | inactive | 37% | > 10 µM | > 10 µM | –
8 | C=CCn1c(=O)c2cnc(Nc3ccc(N4CCN(CC(=O)NCCCCC(=O)NCc5ccc(COc6cccc7c6C(=O)N(C6CCC(=O)NC6=O)C7=O)cc5)CC4)cc3)nc2n1-c1cccc(C(C)(C)O)n1 (configuration not stated) | 7000 nM | inactive | 45% | > 10 µM | > 10 µM | –
9 | C=CCn1c(=O)c2cnc(Nc3ccc(N4CCN(CC(=O)NCCOCCOCCOCCOCCOCCOCCOCCOCCNc5cccc6c5C(=O)N(C5CCC(=O)NC5=O)C6=O)CC4)cc3)nc2n1-c1cccc(C(C)(C)O)n1 (configuration not stated) | 523 nM | inactive | 28% | > 10 µM | 8.85 µM | –
10 | C=CCn1c(=O)c2cnc(Nc3ccc(N4CCN(CC(=O)NCCCCNc5cccc6c5C(=O)N(C5CCC(=O)NC5=O)C6=O)CC4)cc3)nc2n1-c1cccc(C(C)(C)O)n1 (configuration not stated) | 226 nM | inactive | 21% | 5.38 µM | 1.59 µM | –
11 | C=CCn1c(=O)c2cnc(Nc3ccc(N4CCN(CC(=O)NCCCCC(=O)NCc5ccc(CNc6cccc7c6C(=O)N(C6CCC(=O)NC6=O)C7=O)cc5)CC4)cc3)nc2n1-c1cccc(C(C)(C)O)n1 (configuration not stated) | 6000 nM | inactive | 27% | > 10 µM | > 10 µM | IC50 [4]: > 10 µM
12 | C=CCn1c(=O)c2cnc(Nc3ccc(N4CCN(C)CC4)cc3)nc2n1-c1cccc(C(C)(C)O)n1 [ADAVOSERTIB] | 133 nM | inactive | – | 0.215 µM | 0.536 µM | inhibition [5]: 94%; Activity [6]: inactive; Activity [7]: 70%; AUC(0-t) at 6 h [8]: 915 ng·h/mL; Activity [9]: 120%; Activity [10]: 98%; half-life [11]: 429 min; Activity [12]: 90%; Activity [13]: 90%; IC50 [4]: 0.268 µM; Tmax [14]: 15 min; AUC(0-inf) [15]: 934 ng·h/mL; Cmax [16]: 681 ng/mL; MRT inf [17]: 2.84 h
13 | C=CCn1c(=O)c2cnc(Nc3ccc(N4CCN(CCCCCNc5cccc6c5C(=O)N(C5CCC(=O)NC5=O)C6=O)CC4)cc3)nc2n1-c1cccc(C(C)(C)O)n1 (configuration not stated) | 182 nM | inactive | 24% | 1.31 µM | 1.26 µM | –
14 | C=CCn1c(=O)c2cnc(Nc3ccc(N4CCN(CC(=O)NCCOCCOCCOCCOCCOCCOCCNc5cccc6c5C(=O)N(C5CCC(=O)NC5=O)C6=O)CC4)cc3)nc2n1-c1cccc(C(C)(C)O)n1 (configuration not stated) | 1130 nM | inactive | 33% | > 10 µM | > 10 µM | –
15 | C=CCn1c(=O)c2cnc(Nc3ccc(N4CCN(CC(=O)NCCOCCOCCOCCOCCOCCNc5cccc6c5C(=O)N(C5CCC(=O)NC5=O)C6=O)CC4)cc3)nc2n1-c1cccc(C(C)(C)O)n1 (configuration not stated) | 2150 nM | inactive | 26% | 10 µM | > 10 µM | IC50 [4]: > 10 µM
16 | C=CCn1c(=O)c2cnc(Nc3ccc(N4CCN(CC(=O)NCCCCCNc5cccc6c5C(=O)N(C5CCC(=O)NC5=O)C6=O)CC4)cc3)nc2n1-c1cccc(C(C)(C)O)n1 (configuration not stated) | 809 nM | inactive | 32% | 6.87 µM | 2.13 µM | –
17 | C=CCn1c(=O)c2cnc(Nc3ccc(N4CCN(CC(=O)NCCOCCOCCOCCOCCNc5cccc6c5C(=O)N(C5CCC(=O)NC5=O)C6=O)CC4)cc3)nc2n1-c1cccc(C(C)(C)O)n1 (configuration not stated) | 408 nM | inactive | 49% | 5.83 µM | 3.14 µM | –
